Biological target: T1, His6 tagged human recombinant FABP4 (Homo sapiens, UniProt P15090)
T1 construct: purchased Cayman Chemicals 10009549
Experiment: FABP4 TR-FRET assay: displacement of BODIPY FL C12 fatty acid
Conditions: triplicates, inhibition of BODIPY FL C12 binding
Text: Activity of compounds with FABP4 was profiled using a Terbium (Tb) based time resolved fluorescence energy transfer (TR-FRET) assay. The assay measures the compound mediated displacement of the fluorescent fatty acid BODIPY FL C12 (Thermo Fisher; catalog number D3822) from His6 tagged human recombinant FABP4 (His6-FABP4; Cayman Chemicals, catalog number 10009549) via recording the energy transfer from TB donor molecule on anti-His6-tag antibody to acceptor BODIPY moiety. Briefly, compounds were prepared at a concentration of 0.362 mM and 0.0362 mM, and BODIPY FL C12 was prepared at 4.2 μM, in DMSO. 1.2 μL of each compound or DMSO (vehicle control) and 1.2 μL of BODIPY FL C12 were added into the wells of a 384-well black polypropylene plate. His6-FABP4 and Tb anti-His6 antibody were prepared in the assay buffer (25 mM Tris/HCl, pH 7.4, 0.4 mg/ml y-globulins, 0.010% NP-40, 1 mM DTT) at a concentration of 83 nM and 49.6 nM, respectively. The protein and antibody solutions were then mixed at a ratio of 34:7 (v/v) and incubated on ice for 30 minutes. The assay was initiated by adding 41 μL of the resulting protein/antibody solution into the wells containing the compounds and BODIPY FL C12. The plate was centrifuged and incubated at room temperature for 10 min. The TR-FRET signals were recorded using an EnVision Multilabel plate reader (PerkinElmer; TB excitation 320 nm, BODIPY FL C12 emission 520 nm; TB emission 615 nm). Relative fluorescence ratio (520 nm*10,000/615 nm) were used to calculate the compound mediated inhibition of BODIPY C12 FL fatty acid binding to FABP4. […] Glucose consumption and FABP4 inhibition is shown below in Table 3 below.

T1 sequence (P15090 whole entry): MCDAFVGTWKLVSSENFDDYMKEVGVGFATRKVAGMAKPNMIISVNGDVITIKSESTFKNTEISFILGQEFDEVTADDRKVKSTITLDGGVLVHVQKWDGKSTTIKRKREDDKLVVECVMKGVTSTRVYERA

Row | SMILES | inhibition at 1 µM (1 μM compound) | inhibition at 10 µM (10 μM compound) | FABP4 inhibition (%) at 1 μM Mean (1 μM compound) | FABP4 inhibition (%) at 10 μM Mean (10 μM compound)
1 | CCCCCCC1CCCc2c(n(Cc3cccc(C(=O)O)c3)c3c(C(=O)O)cccc23)C1 (stereo not shown) [5-[(3-carboxyphenyl)methyl]-7-hexyl-5H,6H,7H,8H,9H,10H-cyclohepta[b]indole-4-carboxylic acid] | 89.8% | 89.2% | – | –
2 | CCCCCCC1CCCc2c(n(Cc3cccc(Cl)c3)c3c(C(=O)O)cccc23)C1 (stereo not shown) [5-[(3-chlorophenyl)methyl]-7-hexyl-5H,6H,7H,8H,9H,10H-cyclohepta[b]indole-4-carboxylic acid] | 103% | 45.9% | – | –
3 | CCCCCCC1CCCc2c(n(Cc3cccc(C#N)c3F)c3c(C(=O)O)cccc23)C1 (stereo not shown) [5-[(3-cyano-2-fluorophenyl)methyl]-7-hexyl-5H,6H,7H,8H,9H,10H-cyclohepta[b]indole-4-carboxylic acid] | 87.9% | 95.5% | – | –
4 | CCCCCCC1CCCc2c(n(Cc3cccc(C#N)c3)c3c(C(=O)O)cc(F)cc23)C1 (stereo not shown) [5-[(3-cyanophenyl)methyl]-2-fluoro-7-hexyl-5H,6H,7H,8H,9H,10H-cyclohepta[b]indole-4-carboxylic acid] | 87.3% | 93.9% | – | –
5 | N#Cc1cccc(Cn2c3c(c4cccc(C(=O)O)c42)CCCC(CCc2ccccc2)C3)c1 (stereo not shown) [5-[(3-cyanophenyl)methyl]-7-(2-phenylethyl)-5H,6H,7H,8H,9H,10H-cyclohepta[b]indole-4-carboxylic acid] | 93.1% | 94.5% | – | –
6 | CCC1CCCc2c(n(Cc3cccc(C#N)c3)c3c(C(=O)O)cccc23)C1 (stereo not shown) [5-[(3-cyanophenyl)methyl]-7-ethyl-5H,6H,7H,8H,9H,10H-cyclohepta[b]indole-4-carboxylic acid] | 90% | 97% | – | –
7 | CCCCCCC1CCCc2c(n(Cc3cccc(C#N)c3)c3c(C(=O)O)cccc23)C1 (stereo not shown) [5-[(3-cyanophenyl)methyl]-7-hexyl-5H,6H,7H,8H,9H,10H-cyclohepta[b]indole-4-carboxylic acid] | 94.1% | 88.7% | – | –
8 | CCCCCCCCC1CCCc2c(n(Cc3cccc(C#N)c3)c3c(C(=O)O)cccc23)C1 (stereo not shown) [5-[(3-cyanophenyl)methyl]-7-octyl-5H,6H,7H,8H,9H,10H-cyclohepta[b]indole-4-carboxylic acid] | 94.5% | 93% | – | –
9 | CCCCCC1CCCc2c(n(Cc3cccc(C#N)c3)c3c(C(=O)O)cccc23)C1 (stereo not shown) [5-[(3-cyanophenyl)methyl]-7-pentyl-5H,6H,7H,8H,9H,10H-cyclohepta[b]indole-4-carboxylic acid] | 100% | 96.1% | – | –
10 | CCC1CCCCc2c1c1cccc(C(=O)O)c1n2Cc1cccc(C#N)c1 (stereo not shown) [5-[(3-cyanophenyl)methyl]-10-ethyl-5H,6H,7H,8H,9H,10H-cyclohepta[b]indole-4-carboxylic acid] | 92.4% | 98.2% | – | –
11 | CCCCCC1CCCCc2c1c1cccc(C(=O)O)c1n2Cc1cccc(C#N)c1 (stereo not shown) [5-[(3-cyanophenyl)methyl]-10-pentyl-5H,6H,7H,8H,9H,10H-cyclohepta[b]indole-4-carboxylic acid] | 44.3% | 77% | – | –
12 | CCCC1CCCCc2c1c1cccc(C(=O)O)c1n2Cc1cccc(C#N)c1 (stereo not shown) [5-[(3-cyanophenyl)methyl]-10-propyl-5H,6H,7H,8H,9H,10H-cyclohepta[b]indole-4-carboxylic acid] | 73.3% | 97.5% | – | –
13 | CCCCCCC1CCCc2c(n(Cc3cccc(F)c3)c3c(C(=O)O)cccc23)C1 (stereo not shown) [5-[(3-fluorophenyl)methyl]-7-hexyl-5H,6H,7H,8H,9H,10H-cyclohepta[b]indole-4-carboxylic acid] | 93.6% | 92.9% | – | –
14 | CCCCCCC1CCCc2c(n(Cc3ccc(C(N)=O)cc3)c3c(C(=O)O)cccc23)C1 (stereo not shown) [5-[(4-carbamoylphenyl)methyl]-7-hexyl-5H,6H,7H,8H,9H,10H-cyclohepta[b]indole-4-carboxylic acid] | 77.7% | 83.8% | – | –
15 | CCCCCCC1CCCc2c(n(Cc3ccc(C#N)cc3)c3c(C(=O)O)cccc23)C1 (stereo not shown) [5-[(4-cyanophenyl)methyl]-7-hexyl-5H,6H,7H,8H,9H,10H-cyclohepta[b]indole-4-carboxylic acid] | 81.3% | 84.7% | – | –
16 | CCCCCCC1CCCc2c(n(Cc3ccc(F)cc3)c3c(C(=O)O)cccc23)C1 (stereo not shown) [5-[(4-fluorophenyl)methyl]-7-hexyl-5H,6H,7H,8H,9H,10H-cyclohepta[b]indole-4-carboxylic acid] | 74.4% | 77.6% | – | –

Row | SMILES | inhibition at 1 µM (1 μM compound) | inhibition at 10 µM (10 μM compound) | FABP4 inhibition (%) at 1 μM Mean (1 μM compound) | FABP4 inhibition (%) at 10 μM Mean (10 μM compound)
17 | CCCCCCC1CCCc2c(n(Cc3ccc(C#N)o3)c3c(C(=O)O)cccc23)C1 (stereo not shown) [5-[(5-cyanofuran-2-yl)methyl]-7-hexyl-5H,6H,7H,8H,9H,10H-cyclohepta[b]indole-4-carboxylic acid] | 81.3% | 90% | – | –
18 | CCCCCCC1CCCc2c(n(Cc3cncc(C#N)c3)c3c(C(=O)O)cccc23)C1 (stereo not shown) [5-[(5-cyanopyridin-3-yl)methyl]-7-hexyl-5H,6H,7H,8H,9H,10H-cyclohepta[b]indole-4-carboxylic acid] | 90.5% | 91.8% | – | –
19 | CCCCCCC1CCCc2c(n(Cc3ccc(C#N)s3)c3c(C(=O)O)cccc23)C1 (stereo not shown) [5-[(5-cyanothiophen-2-yl)methyl]-7-hexyl-5H,6H,7H,8H,9H,10H-cyclohepta[b]indole-4-carboxylic acid] | 86.6% | 87.3% | 83.31% | 89.42%
20 | CCCCCCC1CCCc2c(n(Cc3cccc(C(N)=O)n3)c3c(C(=O)O)cccc23)C1 (stereo not shown) [5-[(6-carbamoylpyridin-2-yl)methyl]-7-hexyl-5H,6H,7H,8H,9H,10H-cyclohepta[b]indole-4-carboxylic acid] | 94% | 95.2% | – | –
21 | CCCCCCC1CCCc2c(n(Cc3cccc(C#N)n3)c3c(C(=O)O)cccc23)C1 (stereo not shown) [5-[(6-cyanopyridin-2-yl)methyl]-7-hexyl-5H,6H,7H,8H,9H,10H-cyclohepta[b]indole-4-carboxylic acid] | 93.5% | 88.1% | – | –
22 | CCCCCCC1CCCc2c(n(Cc3cccc(F)n3)c3c(C(=O)O)cccc23)C1 (stereo not shown) [5-[(6-fluoropyridin-2-yl)methyl]-7-hexyl-5H,6H,7H,8H,9H,10H-cyclohepta[b]indole-4-carboxylic acid] | 86.5% | 91.8% | – | –
23 | CCCCCCC1CCCc2c(n(Cc3cccc(C(=O)O)n3)c3c(C(=O)O)cccc23)C1 (stereo not shown) [6-({4-carboxy-7-hexyl-5H,6H,7H,8H,9H,10H-cyclohepta[b]indol-5-yl}methyl)pyridine-2-carboxylic acid] | 91.6% | 96.5% | – | –
24 | CCCCC1CCCCc2c1n(Cc1cccc(C(N)=O)c1)c1c(C(=O)O)cccc21 (stereo not shown) [6-butyl-5-[(3-carbamoylphenyl)methyl]-5H,6H,7H,8H,9H,10H-cyclohepta[b]indole-4-carboxylic acid] | 91.4% | 95.2% | – | –
25 | CCCCC1CCCCc2c1n(Cc1cccc(C#N)c1)c1c(C(=O)O)cccc21 (stereo not shown) [6-butyl-5-[(3-cyanophenyl)methyl]-5H,6H,7H,8H,9H,10H-cyclohepta[b]indole-4-carboxylic acid] | 71.3% | 85.7% | – | –
26 | CCCCC1CCCc2c(n(Cc3ccccc3C(N)=O)c3c(C(=O)O)cccc23)C1 (stereo not shown) [7-butyl-5-[(2-carbamoylphenyl)methyl]-5H,6H,7H,8H,9H,10H-cyclohepta[b]indole-4-carboxylic acid] | 71.3% | 94.5% | – | –
27 | CCCCC1CCCc2c(n(Cc3ccccc3C#N)c3c(C(=O)O)cccc23)C1 (stereo not shown) [7-butyl-5-[(2-cyanophenyl)methyl]-5H,6H,7H,8H,9H,10H-cyclohepta[b]indole-4-carboxylic acid] | 91.5% | 87.3% | – | –
28 | CCCCC1CCCc2c(n(Cc3ccccc3F)c3c(C(=O)O)cccc23)C1 (stereo not shown) [7-butyl-5-[(2-fluorophenyl)methyl]-5H,6H,7H,8H,9H,10H-cyclohepta[b]indole-4-carboxylic acid] | 92.1% | 88.1% | – | –
29 | CCCCC1CCCc2c(n(Cc3ccnc(OC)c3)c3c(C(=O)O)cccc23)C1 (stereo not shown) [7-butyl-5-[(2-methoxypyridin-4-yl)methyl]-5H,6H,7H,8H,9H,10H-cyclohepta[b]indole-4-carboxylic acid] | 83.4% | 88.2% | – | –
30 | CCCCC1CCCc2c(n(Cc3ccccc3C)c3c(C(=O)O)cccc23)C1 (stereo not shown) [7-butyl-5-[(2-methylphenyl)methyl]-5H,6H,7H,8H,9H,10H-cyclohepta[b]indole-4-carboxylic acid] | 101% | 95.3% | – | –
31 | CCCCC1CCCc2c(n(Cc3cccc(C(N)=O)c3)c3c(C(=O)O)cccc23)C1 (stereo not shown) [7-butyl-5-[(3-carbamoylphenyl)methyl]-5H,6H,7H,8H,9H,10H-cyclohepta[b]indole-4-carboxylic acid] | 89.4% | 117% | – | –

Source: patent US12084419B2, “Cell metabolism modulating compounds and uses thereof” (CRESCENTA BIOSCIENCES, priority 2020, dated 2024)
